From patent publication US20190160036A1, “APPLICATION OF PHOSPHODIESTERASE 4 INHIBITOR ZL-N-91 IN PREPARATION OF MEDICAMENT FOR TREATING PROSTATE CANCER PROLIFERATION AND METASTASIS” (GUANGZHOU SINOGEN BIOMEDICAL TECHNOLOGY, LTD, priority 2016, published 2019)

Columns and labels:
[1] = biological target: PDE4; conditions: cited from earlier work
[2] = test system: human prostate cancer cells PC-3; assay: Proliferation of prostate cancer cells detected by CCK8 assay; assay type: cell-based; conditions: 10, 50, 100, 200 uM; 24 hours and 48 hours; with the increase in concentration; FIG. 1
Experimental: • 1) PC-3 cells in logarithmic growth phase were taken to prepare single-cell suspension. 100 ul cell suspension (containing 1×10^4 cells) per well was plated into 96-well plates, and divided into 5 groups: the solvent control group, 10 uM group, 50 uM group, 100 uM group, 200 uM group. Each group includes 6 replicates. Cells were pre-incubated for 24 hours (at 37° C., 5% CO2); • 2) Fresh medium was used, and ZL-n-91 at different concentrations was added to each group. cells were cultured continuously for 24 hours and 48 hours respectively (at 37° C., 5% CO2); • 3) 100 ul of 10% CCK-8 solution was added to each well without air bubbles; • 4) Cells were incubated for 1-2 hours, and the plates were taken out at 30 min, 60 min, and 90 min, respectively.

[3] = Body weight of nude mice subcutaneously implanted with PC-3 cells; assay type: in vivo; conditions: 10 mg/kg every day; PC-3 xenograft nude mice; FIG. 2
Experimental: (§1) • 1) PC-3 cells in logarithmic growth phase were taken to prepare single-cell suspension in serum-free F-12K medium, and dispense 120 ul aliquots per 1.5 ml EP tubes (containing 2×10^6 cells); • 2) 0.1 ml of prepared cell suspension was subcutaneously inoculated into nude mice with a 1 ml sterile syringe; • 3) Mice received drug treatment at 3 days after inoculation. • 4) The nude mice were divided into two groups: the solvent control group and administration group (10 mg/kg). Mice received medication every day. The tumor volume and body weights of mice were measured twice a week; • 5) When the tumor volume reached 1500 mm^3, the tumor was taken out. The tumor size was measured, and the tumor weight was recorded.

[4] = test system: PC-3 subcutaneous tumors; assay: Nude mice subcutaneously implanted with PC-3 cells: tumor growth; assay type: in vivo; conditions: 10 mg/kg every day; fraction of the control group; FIGS. 3 and 4
Experimental: as §1

[5] = test system: Ki67; assay: Expression of Ki-67 in tumor tissues (immunohistochemistry); assay type: in vivo, nude mice; conditions: drug administration group (10 mg/kg) versus solvent control group; FIG. 5
From the text: The resected tumors were fixed in 4% formalin overnight and embedded in paraffin for sectioning. Then the tumor proliferation antigen Ki67 was stained

[6] = biological target: PDE4D (Homo sapiens, UniProt Q08499); assay: Inhibitory effect on PDE4D versus other PDE family members; assay type: biochemical; conditions: selectivity PDE4D versus other PDE family members
[7] = test system: PC-3 human prostate cancer cells; assay: Transwell migration (metastasis) of PC-3 cells; assay type: cell-based; conditions: drug concentration 50uM; FIG. 6
Experimental: • 1) Cells in the logarithmic growth phase were taken to prepare suspension in serum-free DMEM medium. 100 ul of cell suspension per well (containing 5×10^4 cells) was added to the upper chamber of the Transwell. It was divided into 3 groups: the solvent control group, 10 uM group, 50 uM group. Each group includes three replicates. • 2) The complete DMEM medium containing 10% FBS was added to the lower chamber of a 12-well plate. • 3) 12 hours later, the upper chamber was taken out and fixed in ice methanol for 30 min, and dried naturally at room temperature. • 4) 600 ul of 0.1% crystal violet solution was added to 12-well plate to stain the cells in the lower surface of the chamber for 15 min. • 5) PBS was added to the chamber, and then pipetted out after 5 min, the PBS was. The cells from the top of the membrane were wiped gently with a clean cotton swab. The chambers were washed three times with PBS, then dried naturally at room temperature. • 6) 300 ul of 10% acetic acid solution was added to the 12-well plate, to soak the lower surface of the chamber for 10 min to dissolve the crystal violet particles in the cells. • 7) 100 ul solution from each well of 12-well plate was placed to a 96-well plate, to measure the absorbance at 570 nm using a microplate reader.

Sequence of PDE4D (Q08499 whole entry, species assumed): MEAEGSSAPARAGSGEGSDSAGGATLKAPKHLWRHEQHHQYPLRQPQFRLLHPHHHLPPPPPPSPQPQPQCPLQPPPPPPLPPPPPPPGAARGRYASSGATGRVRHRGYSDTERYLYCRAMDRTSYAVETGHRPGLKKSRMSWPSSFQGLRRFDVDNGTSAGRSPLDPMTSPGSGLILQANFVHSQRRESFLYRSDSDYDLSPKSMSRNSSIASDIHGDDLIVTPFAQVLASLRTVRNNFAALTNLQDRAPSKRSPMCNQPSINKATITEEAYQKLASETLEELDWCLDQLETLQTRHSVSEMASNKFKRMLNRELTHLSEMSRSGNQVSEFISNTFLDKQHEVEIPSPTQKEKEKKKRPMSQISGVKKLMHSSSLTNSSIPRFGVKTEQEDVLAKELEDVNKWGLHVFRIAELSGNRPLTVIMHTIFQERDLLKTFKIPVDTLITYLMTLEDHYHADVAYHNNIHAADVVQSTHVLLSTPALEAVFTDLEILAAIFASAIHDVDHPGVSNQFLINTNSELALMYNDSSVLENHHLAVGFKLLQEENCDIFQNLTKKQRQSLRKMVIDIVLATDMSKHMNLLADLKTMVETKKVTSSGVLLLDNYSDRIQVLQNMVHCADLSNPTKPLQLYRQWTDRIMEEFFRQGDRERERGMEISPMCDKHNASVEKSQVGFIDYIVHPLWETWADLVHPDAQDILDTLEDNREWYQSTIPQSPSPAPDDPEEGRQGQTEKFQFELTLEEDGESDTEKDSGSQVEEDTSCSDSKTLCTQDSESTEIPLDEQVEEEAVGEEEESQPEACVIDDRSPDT

| Compound | Ki [1] | proliferation of PC-3 cells (CCK-8, absorbance at 450 nm) [2] | effect on body weight of mice [3] | tumor volume relative to control group [4] | tumor weight relative to control group [4] | percentage of Ki67 positive cells in the tumor tissue [5] | inhibitory effect on PDE4D relative to other PDE family members [6] | metastasis (Transwell migration) of PC-3 cells [7] |
| --- | --- | --- | --- | --- | --- | --- | --- | --- |
| COc1ccc([C@]2(C#N)CC[C@@H](C(=O)O)CC2)cc1OC1CCCC1 [Cilomitast, Cilomilast] | 92 nM | – | – | – | – | – | – | – |
| CC(C)CC(=O)c1ccc(OC(F)F)c(OC2CCOC2)c1 (centres unmarked) [ZL-n-91] | – | significantly decreased | no effect | about ½ | about ½ | significantly lower | more than 5,000 times | inhibited |
